Laboratory results as given in US5122523A, “N-acylamino acid derivatives and their pharmaceutical compositions” (Banyu Pharmaceutical Co., Ltd., priority 1987, dated 1992).

Experiments:
[1] = target: T1, human plasma renin (Homo sapiens, UniProt P00797); test: Renin inhibiting activities (human plasma, angiotensin I by radioimmunoassay); format: biochemical; conditions: pH7.4, 37° C., one hour
T1 construct: from tissue; host or cells: human plasma
T1 sequence (P00797 67-406): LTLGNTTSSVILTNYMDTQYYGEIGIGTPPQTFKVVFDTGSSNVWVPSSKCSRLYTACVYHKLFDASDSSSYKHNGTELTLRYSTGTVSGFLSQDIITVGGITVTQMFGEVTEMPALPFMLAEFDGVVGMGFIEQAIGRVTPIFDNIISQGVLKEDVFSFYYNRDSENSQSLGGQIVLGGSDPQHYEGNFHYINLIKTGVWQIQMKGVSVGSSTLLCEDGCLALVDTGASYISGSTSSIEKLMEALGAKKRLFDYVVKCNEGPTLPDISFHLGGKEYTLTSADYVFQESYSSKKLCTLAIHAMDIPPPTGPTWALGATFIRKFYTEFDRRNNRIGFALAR
Protocol: TEST EXAMPLE 1: Renin inhibiting activities
To 156 μl of a 0.2M sodium phosphate buffer solution (pH7.4), 40 μl of a solution mixture of 34 mM 8-hydroxyquinoline and 100 mM disodium ethylenediamine tetraacetate, 4 μl of dimethyl sulfoxide or a dimethyl sulfoxide solution of an inhibitor and 200 μl of human plasma were added and reacted at 37° C. for one hour. Then, pepstatin was added thereto to terminate the reaction, and the amount of the resulting angiotension I was measured by radio immunoassay whereby the inhibiting activity was determined.

[2] = Absorption test by oral administration in rats (plasma concentration); format: in vivo; conditions: rat, rats (n=4), 10 mg/kg oral, read-out: Concentration of the compound in plasma
Protocol: TEST EXAMPLE 2: Absorption test by oral administration
10 mg/kg of the compound of Example 16 was orally administered to rats (n=4), whereupon the concentration of the compound in the plasma was measured. The concentration in the plasma was calculated by the inhibiting activities against human plasma renin.

Q: For `CCCC[C@H](NC(=O)C(Cc1cccc2ccccc12)CS(=O)(=O)CC)C(=O)N[C@@H](CC1CCCCC1)[C@@H](O)[C@H](O)CN1CCOCC1` (mixture of isomers) [Example 16, (2RS,3RS,4S)-4-{L-N-[3-ethylsulfonyl-2-(1-naphthylmethyl)propionyl]norleucyl}amino-5-cyclohexyl-1-morpholino-2,3-pentandiol], which IC50 [1] is on record?
A: 3.4 nM

Q: And the concentration at 0.5 h ([2]; 1/2 hrs)?
A: 267 ng/mL

Q: What about the concentration at 0.25 h ([2]; 1/4 hrs) of the same compound?
A: 212 ng/mL

Q: What about the concentration at 10 min ([2]; 1/6 hrs) of the same compound?
A: 136 ng/mL

Q: And the concentration at 5 min ([2]; 1/12 hrs)?
A: 89 ng/mL

Q: What about the concentration at 1 h ([2]; 1 hr) of the same compound?
A: 183 ng/mL

Q: What about the concentration at 2 h ([2]; 2 hrs) of the same compound?
A: 85 ng/mL

Q: What about the concentration at 4 h ([2]; 4 hrs) of the same compound?
A: 34 ng/mL

Q: What about the concentration at 8 h ([2]; 8 hrs) of the same compound?
A: 12 ng/mL

Q: What about the concentration at 24 h ([2]; 24 hrs) of the same compound?
A: 7 ng/mL

Q: For `CCCC[C@H](NC(=O)[C@H](Cc1ccccc1)CS(=O)(=O)c1ncccn1)C(=O)N[C@@H](CC1CCCCC1)[C@@H](O)[C@@H](O)CN1CCOCC1` [Example 44, (2S,3R,4S)-4-{L-N-[(2S)-2-benzyl-3-(pyrimidin-2-yl)sulfonylpropionyl]norleucyl}amino-5-cyclohexyl-1-morpholino-2,3-pentanediol], which IC50 [1] is on record?
A: 3.8 nM

Q: Which IC50 [1] does the source give for `CCCC[C@H](NC(=O)[C@H](Cc1cccc2ccccc12)CS(=O)(=O)Cc1ccco1)C(=O)N[C@@H](CC1CCCCC1)[C@@H](O)[C@@H](O)CN1CCOCC1` [Example 47, (2S,3R,4S)-4-{L-N-[(2S)-3-furfurylsulfonyl-2-(1-naphthylmethyl)propionyl]norleucyl}amino-5-cyclohexyl-1-morpholino-2,3-pentanediol] here?
A: 2.3 nM

Q: Which IC50 [1] does the source give for `CCCC[C@H](NC(=O)[C@H](Cc1cccc2ccccc12)C[S+]([O-])CC)C(=O)N[C@@H](CC1CCCCC1)[C@@H](O)[C@@H](O)CN1CCOCC1` (stereo partly drawn) [Example 49(A), (2S,3R,4S)-4-{L-N-[(2S)-3-ethylsulfinyl-2-(1-naphthylmethyl)propionyl]norleucyl}amino-5-cyclohexyl-1-morpholino-2,3-pentanediol] here?
A: 6.1 nM

Q: Which IC50 [1] does the source give for `CCCC[C@H](NC(=O)[C@H](Cc1ccccc1)CS(=O)(=O)C1CCCC1)C(=O)N[C@@H](CC1CCCCC1)[C@@H](O)[C@@H](O)C[N+]1([O-])CCOCC1` [Example 52, N-[(2S,3R,4S)-4-[L-N-[(2S)-3-cyclopentanesulfonyl-2-benzylpropionyl]norleucyl]amino-5-cyclohexyl-2,3-dihydroxypentyl]morpholine N-oxide] here?
A: 3 nM

Q: With `CCCC[C@H](NC(=O)[C@H](Cc1ccccc1)CS(=O)(=O)Cc1ccco1)C(=O)N[C@@H](CC1CCCCC1)[C@@H](O)[C@@H](O)CN1CCOCC1` [Example 56, (2S,3R,4S)-4-{L-N-[(2S)-2-benzyl-3-furfurylsulfonylpropionyl]norleucyl}amino-5-cyclohexyl-1-morpholino-2,3-pentanediol] as the compound, how does the IC50 [1] read?
A: 2 nM
